According to patent publication US9834571B2, “Compounds for inhibiting cell proliferation in EGFR-driven cancers” (ARIAD Pharmaceuticals, Inc., priority 2012, dated 2017):

Key:
[1] = molecular target: human EGFR (native sequence) (Homo sapiens, UniProt P00533); assay: Kinase inhibitory activity against human EGFR (native sequence); assay type: biochemical; details: 10 pt curves, 3 μM top concentration, 10 μM ATP; read-out: IC50 for kinase inhibition, EGFR
Procedure, shortened: (§1)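 Ten-point dose-response curves were run in singlicate from a 3 μM top concentration, with ATP at 10 μM.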

EGFR L858R/T790M = EGFR L858R/T790M (Homo sapiens, UniProt P00533, L858R/T790M); assay: Kinase inhibitory activity against EGFR bearing the L858R/T790M double mutation; assay type: biochemical; details: 10 pt curves, 3 μM top concentration, 10 μM ATP; read-out: IC50 for kinase inhibition, EGFR L858R T790M
Procedure, shortened: as §1

[2] = molecular target: T1, BaF3 cells expressing the target EGFR mutations (Homo sapiens, UniProt P00533, T790M, cells depend on it, form not given); assay: Antiproliferative activity (MTT) against BaF3 cells expressing the target EGFR mutations; assay type: cell-based; details: BAF3 EGFR DEL T790M PURO POOL cells, read-out: IC50, BAF3 EGFR DEL T790M PURO POOL
T1 construct: IC50, BAF3 EGFR DEL T790M PURO POOL; other: BAF3 EGFR DEL T790M PURO POOL cells, MTT; other: BAF3 EGFR DEL T790M PURO POOL cells; MTT
Procedure, shortened: (§2)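 Antiproliferative effect was measured by MTT in BaF3 cells engineered to express mutant EGFR, with wildtype-EGFR BaF3 cells as the control line.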

[3] = molecular target: T2, BaF3 cells expressing the target EGFR mutations (Homo sapiens, UniProt P00533, T790M/L858R, cells depend on it); assay: as above; assay type: cell-based; details: BAF3 EGFR L858R-T790M PURO POOL cells, read-out: IC50, BAF3 EGFR L858R-T790M PURO POOL
T2 construct: IC50, BAF3 EGFR L858R-T790M PURO POOL; other: BAF3 EGFR L858R-T790M PURO POOL cells, MTT; IC50, BAF3 EGFR L858R-T790M PURO POOL; other: BAF3 EGFR L858R-T790M PURO POOL cells; MTT
Procedure, shortened: as §2

[4] = tested on: BaF3 cells expressing wildtype EGFR; assay: Antiproliferative activity (MTT) against control BaF3 cells expressing wildtype EGFR; assay type: cell-based; details: Mus musculus, BAF3 parental cells
Procedure, shortened: as §2

EGFR L858R = EGFR L858R (Homo sapiens, UniProt P00533, L858R); assay: Kinase inhibitory activity against EGFR bearing the L858R mutation; assay type: biochemical; details: 10 pt curves, 3 μM top concentration, 10 μM ATP; read-out: IC50 for kinase inhibition, EGFR L858R
Procedure, shortened: as §1

Chain of EGFR L858R (P00533 25-1210 L858R): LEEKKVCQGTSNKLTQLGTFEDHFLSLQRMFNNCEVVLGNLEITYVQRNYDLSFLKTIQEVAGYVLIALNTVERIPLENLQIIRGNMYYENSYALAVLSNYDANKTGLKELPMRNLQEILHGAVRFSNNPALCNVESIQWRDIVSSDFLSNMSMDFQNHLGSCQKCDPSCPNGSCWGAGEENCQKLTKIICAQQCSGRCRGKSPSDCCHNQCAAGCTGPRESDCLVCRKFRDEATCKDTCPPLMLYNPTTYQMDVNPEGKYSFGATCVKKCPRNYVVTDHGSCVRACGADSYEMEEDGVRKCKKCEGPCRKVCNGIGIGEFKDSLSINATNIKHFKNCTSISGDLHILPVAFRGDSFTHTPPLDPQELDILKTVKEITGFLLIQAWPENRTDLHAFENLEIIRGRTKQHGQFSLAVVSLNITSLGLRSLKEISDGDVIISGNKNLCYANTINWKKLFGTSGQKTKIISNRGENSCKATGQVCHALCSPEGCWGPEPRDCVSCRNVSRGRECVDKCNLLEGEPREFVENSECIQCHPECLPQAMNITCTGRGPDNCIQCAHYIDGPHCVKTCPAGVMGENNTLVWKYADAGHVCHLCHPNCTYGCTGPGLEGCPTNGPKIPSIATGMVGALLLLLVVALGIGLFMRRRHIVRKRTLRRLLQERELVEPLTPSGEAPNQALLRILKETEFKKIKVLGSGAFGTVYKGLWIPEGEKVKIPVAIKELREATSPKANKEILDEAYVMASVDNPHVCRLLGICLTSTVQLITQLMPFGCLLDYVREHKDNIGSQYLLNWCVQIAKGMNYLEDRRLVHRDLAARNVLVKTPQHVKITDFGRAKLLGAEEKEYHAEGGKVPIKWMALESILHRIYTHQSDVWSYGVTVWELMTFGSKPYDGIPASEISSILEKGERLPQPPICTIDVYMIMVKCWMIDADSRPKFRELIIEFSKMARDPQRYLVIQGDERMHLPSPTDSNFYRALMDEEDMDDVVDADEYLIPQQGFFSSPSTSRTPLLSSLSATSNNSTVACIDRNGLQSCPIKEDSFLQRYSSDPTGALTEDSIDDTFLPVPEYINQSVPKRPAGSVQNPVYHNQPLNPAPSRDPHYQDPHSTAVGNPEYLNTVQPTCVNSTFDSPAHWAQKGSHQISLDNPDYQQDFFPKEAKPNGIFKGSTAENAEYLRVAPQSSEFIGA
T2 sequence (P00533 whole entry T790M/L858R): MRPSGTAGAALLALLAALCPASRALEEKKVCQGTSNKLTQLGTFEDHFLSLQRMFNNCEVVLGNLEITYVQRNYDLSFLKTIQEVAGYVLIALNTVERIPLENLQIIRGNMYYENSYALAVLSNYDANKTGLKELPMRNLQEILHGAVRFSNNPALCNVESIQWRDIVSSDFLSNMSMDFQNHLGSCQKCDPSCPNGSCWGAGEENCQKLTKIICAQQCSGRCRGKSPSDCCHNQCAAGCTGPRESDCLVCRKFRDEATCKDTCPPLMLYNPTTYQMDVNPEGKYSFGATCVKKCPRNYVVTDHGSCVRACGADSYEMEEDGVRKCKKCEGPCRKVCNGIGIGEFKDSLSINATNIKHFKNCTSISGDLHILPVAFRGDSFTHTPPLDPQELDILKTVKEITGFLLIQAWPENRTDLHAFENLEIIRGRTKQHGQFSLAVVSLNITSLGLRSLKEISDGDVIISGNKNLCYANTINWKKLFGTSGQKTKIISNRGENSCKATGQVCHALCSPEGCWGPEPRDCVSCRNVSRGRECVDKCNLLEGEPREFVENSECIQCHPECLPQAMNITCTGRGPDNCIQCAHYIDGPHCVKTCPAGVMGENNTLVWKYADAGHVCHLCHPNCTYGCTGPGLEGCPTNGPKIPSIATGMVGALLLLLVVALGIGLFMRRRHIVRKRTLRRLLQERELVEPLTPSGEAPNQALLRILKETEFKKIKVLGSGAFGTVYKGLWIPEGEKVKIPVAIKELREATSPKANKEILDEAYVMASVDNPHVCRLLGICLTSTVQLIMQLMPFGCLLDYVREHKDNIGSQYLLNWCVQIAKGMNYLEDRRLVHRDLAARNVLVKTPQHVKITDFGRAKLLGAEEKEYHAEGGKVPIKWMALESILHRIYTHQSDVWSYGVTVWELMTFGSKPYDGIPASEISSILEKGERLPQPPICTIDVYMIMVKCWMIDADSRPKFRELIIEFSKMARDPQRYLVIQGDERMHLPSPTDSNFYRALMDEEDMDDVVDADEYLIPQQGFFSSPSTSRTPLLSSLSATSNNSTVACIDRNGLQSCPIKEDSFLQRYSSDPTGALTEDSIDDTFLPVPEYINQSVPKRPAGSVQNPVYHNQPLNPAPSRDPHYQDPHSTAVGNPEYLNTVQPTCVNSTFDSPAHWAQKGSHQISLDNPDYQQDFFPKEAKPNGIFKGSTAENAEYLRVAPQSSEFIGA
Chain of EGFR L858R/T790M (P00533 25-1210 T790M/L858R): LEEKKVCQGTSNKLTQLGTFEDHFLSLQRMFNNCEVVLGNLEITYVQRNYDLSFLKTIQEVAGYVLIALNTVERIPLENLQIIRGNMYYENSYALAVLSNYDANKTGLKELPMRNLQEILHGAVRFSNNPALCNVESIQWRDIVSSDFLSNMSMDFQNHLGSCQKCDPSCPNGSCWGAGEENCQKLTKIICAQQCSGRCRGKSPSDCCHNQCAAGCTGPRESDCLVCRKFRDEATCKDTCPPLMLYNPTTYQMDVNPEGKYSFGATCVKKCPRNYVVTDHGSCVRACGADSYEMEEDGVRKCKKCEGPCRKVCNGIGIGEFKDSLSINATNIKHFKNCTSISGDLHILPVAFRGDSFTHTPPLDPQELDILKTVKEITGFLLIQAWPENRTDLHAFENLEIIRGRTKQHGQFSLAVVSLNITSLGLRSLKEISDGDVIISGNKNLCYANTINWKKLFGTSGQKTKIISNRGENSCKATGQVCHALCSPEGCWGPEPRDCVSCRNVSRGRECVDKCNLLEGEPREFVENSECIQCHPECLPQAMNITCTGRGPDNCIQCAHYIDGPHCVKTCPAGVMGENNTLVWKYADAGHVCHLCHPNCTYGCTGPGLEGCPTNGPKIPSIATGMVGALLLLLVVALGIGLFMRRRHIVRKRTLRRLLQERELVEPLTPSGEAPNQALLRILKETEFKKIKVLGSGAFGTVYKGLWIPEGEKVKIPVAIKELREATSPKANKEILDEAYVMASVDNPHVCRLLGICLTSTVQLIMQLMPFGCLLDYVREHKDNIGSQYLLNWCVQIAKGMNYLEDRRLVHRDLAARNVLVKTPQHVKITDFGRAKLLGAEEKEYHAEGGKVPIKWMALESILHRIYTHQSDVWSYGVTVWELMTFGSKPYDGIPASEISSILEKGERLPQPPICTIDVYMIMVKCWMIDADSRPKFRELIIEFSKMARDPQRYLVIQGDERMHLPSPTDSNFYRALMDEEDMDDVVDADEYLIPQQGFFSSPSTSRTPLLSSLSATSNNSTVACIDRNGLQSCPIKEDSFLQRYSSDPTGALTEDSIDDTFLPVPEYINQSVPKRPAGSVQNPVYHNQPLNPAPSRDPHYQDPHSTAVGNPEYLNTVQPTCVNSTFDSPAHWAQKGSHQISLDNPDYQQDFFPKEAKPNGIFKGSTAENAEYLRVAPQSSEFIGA
T1 sequence (P00533 with tags, fused parts or gaps DEL746-750/T790M, form open): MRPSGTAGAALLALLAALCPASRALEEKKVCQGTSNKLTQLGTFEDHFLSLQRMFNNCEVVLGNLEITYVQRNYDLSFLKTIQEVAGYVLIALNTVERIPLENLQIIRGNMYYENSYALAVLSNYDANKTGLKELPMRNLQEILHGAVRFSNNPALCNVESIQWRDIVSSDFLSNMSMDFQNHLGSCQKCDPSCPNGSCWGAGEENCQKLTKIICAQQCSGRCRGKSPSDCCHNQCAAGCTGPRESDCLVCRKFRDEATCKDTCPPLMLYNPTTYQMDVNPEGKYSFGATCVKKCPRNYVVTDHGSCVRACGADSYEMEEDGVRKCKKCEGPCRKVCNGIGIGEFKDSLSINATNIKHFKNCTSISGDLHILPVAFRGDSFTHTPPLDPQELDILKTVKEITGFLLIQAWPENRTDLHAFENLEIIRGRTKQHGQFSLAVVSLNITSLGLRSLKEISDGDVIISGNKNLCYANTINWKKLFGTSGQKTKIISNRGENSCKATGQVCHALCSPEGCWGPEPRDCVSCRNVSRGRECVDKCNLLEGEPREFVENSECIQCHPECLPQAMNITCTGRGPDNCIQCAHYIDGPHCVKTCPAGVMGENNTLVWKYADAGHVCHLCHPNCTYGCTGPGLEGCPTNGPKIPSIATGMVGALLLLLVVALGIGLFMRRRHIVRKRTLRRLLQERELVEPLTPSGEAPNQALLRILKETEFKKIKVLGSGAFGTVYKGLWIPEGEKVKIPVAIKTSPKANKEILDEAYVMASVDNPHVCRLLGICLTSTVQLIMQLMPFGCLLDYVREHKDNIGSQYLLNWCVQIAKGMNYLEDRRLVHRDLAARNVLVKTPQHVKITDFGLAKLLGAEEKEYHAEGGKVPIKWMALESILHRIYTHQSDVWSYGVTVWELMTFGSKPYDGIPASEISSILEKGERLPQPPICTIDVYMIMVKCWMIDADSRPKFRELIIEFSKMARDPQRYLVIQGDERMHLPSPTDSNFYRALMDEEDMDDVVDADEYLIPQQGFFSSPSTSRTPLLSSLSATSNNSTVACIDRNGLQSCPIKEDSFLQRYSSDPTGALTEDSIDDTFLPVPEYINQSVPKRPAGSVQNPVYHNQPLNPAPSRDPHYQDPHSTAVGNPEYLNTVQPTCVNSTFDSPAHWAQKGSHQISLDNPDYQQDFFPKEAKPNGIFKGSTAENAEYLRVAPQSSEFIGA

C=CC(=O)Nc1ccc(Cl)c(Nc2ncc(Cl)c(Nc3ccccc3P(C)(C)=O)n2)c1 [Example 136, N-(4-chloro-3-((5-chloro-4-((2-(dimethylphosphoryl)phenyl)amino)pyrimidin-2-yl)amino)phenyl)acrylamide]
IC50 [1]: < 50 nM | IC50 (EGFR L858R/T790M): < 50 nM | GI50 [2]: < 50 nM | GI50 [3]: < 50 nM | IC50 [4]: ≥ 250 nM | IC50 (EGFR L858R): < 50 nM

COc1ccc(NC(=O)CCl)cc1Nc1ncc(Cl)c(Nc2ccccc2P(C)(C)=O)n1 [Example 137, 2-chloro-N-(3-((5-chloro-4-((2-(dimethylphosphoryl)phenyl)amino)pyrimidin-2-yl)amino)-4-methoxyphenyl)acetamide]
IC50 [1]: < 50 nM | IC50 (EGFR L858R/T790M): < 50 nM | GI50 [2]: < 50 nM | GI50 [3]: < 50 nM | IC50 [4]: ≥ 250 nM | IC50 (EGFR L858R): < 50 nM

C=CC(=O)Nc1ccc(OC2COC2)c(Nc2ncc(Cl)c(Nc3ccccc3P(C)(C)=O)n2)c1 [Example 138, N-(3-((5-chloro-4-((2-(dimethylphosphoryl)phenyl)amino)pyrimidin-2-yl)amino)-4-(oxetan-3-yloxy)phenyl)acrylamide]
IC50 [1]: ≥ 250 nM | IC50 (EGFR L858R/T790M): ≥ 250 nM | GI50 [2]: ≥ 250 nM | GI50 [3]: ≥ 250 nM | IC50 [4]: ≥ 250 nM | IC50 (EGFR L858R): ≥ 250 nM

C=CC(=O)Nc1ccc(OC)c(Nc2ncc(C#N)c(Nc3ccccc3P(C)(C)=O)n2)c1 [Example 139, N-(3-((5-cyano-4-((2-(dimethylphosphoryl)phenyl)amino)pyrimidin-2-yl)amino)-4-methoxyphenyl)acrylamide]
IC50 [1]: < 50 nM | IC50 (EGFR L858R/T790M): < 50 nM | GI50 [2]: 101 to 250 nM | GI50 [3]: ≥ 250 nM | IC50 [4]: ≥ 250 nM | IC50 (EGFR L858R): < 50 nM

COc1cc(C)c(NC(=O)CCl)cc1Nc1ncc(Cl)c(Nc2ccccc2P(C)(C)=O)n1 [Example 140, 2-chloro-N-(5-((5-chloro-4-((2-(dimethylphosphoryl)phenyl)amino)pyrimidin-2-yl)amino)-4-methoxy-2-methylphenyl)acetamide]
IC50 [1]: < 50 nM | IC50 (EGFR L858R/T790M): < 50 nM | GI50 [2]: < 50 nM | GI50 [3]: < 50 nM | IC50 [4]: ≥ 250 nM | IC50 (EGFR L858R): < 50 nM

COc1ccc(NC(=O)CCl)cc1Nc1ncc(C)c(Nc2ccccc2P(C)(C)=O)n1 [Example 141, 2-chloro-N-(3-((4-((2-(dimethylphosphoryl)phenyl)amino)-5-methylpyrimidin-2-yl)amino)-4-methoxyphenyl)acetamide]
IC50 [1]: < 50 nM | IC50 (EGFR L858R/T790M): < 50 nM | GI50 [2]: < 50 nM | GI50 [3]: < 50 nM | IC50 [4]: ≥ 250 nM | IC50 (EGFR L858R): < 50 nM

C=CC(=O)Nc1cc(Nc2ncc(Cl)c(Nc3ccccc3P(C)(C)=O)n2)c(OC)cc1OC(COCC)CN(C)C (stereo not drawn) [Example 142, N-(5-((5-chloro-4-((2-(dimethylphosphoryl)phenyl)amino)pyrimidin-2-yl)amino)-2-((1-(dimethylamino)-3-ethoxypropan-2-yl)oxy)-4-methoxyphenyl)acrylamide]
IC50 [1]: < 50 nM | IC50 (EGFR L858R/T790M): < 50 nM | GI50 [2]: < 50 nM | GI50 [3]: < 50 nM | IC50 [4]: ≥ 250 nM | IC50 (EGFR L858R): < 50 nM

C=CC(=O)Nc1cc(Nc2ncc(Cl)c(Nc3ccccc3P(C)(C)=O)n2)c(C)cc1OC(COC)CN(C)C (stereo not drawn) [Example 143]
IC50 [1]: < 50 nM | IC50 (EGFR L858R/T790M): < 50 nM | GI50 [2]: < 50 nM | GI50 [3]: < 50 nM | IC50 [4]: ≥ 250 nM | IC50 (EGFR L858R): < 50 nM

C=CC(=O)Nc1cc(Nc2ncc(Cl)c(Nc3ccccc3P(C)(C)=O)n2)c(Cl)cc1OC(COC)CN(C)C (stereo not drawn) [Example 145, N-(4-chloro-5-((5-chloro-4-((2-(dimethylphosphoryl)phenyl)amino)pyrimidin-2-yl)amino)-2-((1-(dimethylamino)-3-methoxypropan-2-yl)oxy)phenyl)acrylamide]
IC50 [1]: < 50 nM | IC50 (EGFR L858R/T790M): < 50 nM | GI50 [2]: < 50 nM | GI50 [3]: < 50 nM | IC50 [4]: ≥ 250 nM | IC50 (EGFR L858R): < 50 nM

COc1ccc(NC(=O)CF)cc1Nc1ncc(Cl)c(Nc2ccccc2P(C)(C)=O)n1 [Example 147, N-(3-((5-chloro-4-((2-(dimethylphosphoryl)phenyl)amino)pyrimidin-2-yl)amino)-4-methoxyphenyl)-2-fluoroacetamide]
IC50 [1]: ≥ 250 nM | IC50 (EGFR L858R/T790M): 101 to 250 nM | GI50 [2]: ≥ 250 nM | GI50 [3]: ≥ 250 nM | IC50 [4]: ≥ 250 nM | IC50 (EGFR L858R): 50 to 100 nM

Cc1ccc(NC(=O)CCl)cc1Nc1ncc(Cl)c(Nc2ccccc2P(C)(C)=O)n1 [Example 148, 2-chloro-N-(3-((5-chloro-4-((2-(dimethylphosphoryl)phenyl)amino)pyrimidin-2-yl)amino)-4-methylphenyl)acetamide]
IC50 [1]: < 50 nM | IC50 (EGFR L858R/T790M): < 50 nM | GI50 [2]: < 50 nM | GI50 [3]: < 50 nM | IC50 [4]: ≥ 250 nM | IC50 (EGFR L858R): < 50 nM

COc1cc(F)c(NC(=O)CCl)cc1Nc1ncc(Cl)c(Nc2ccccc2P(C)(C)=O)n1 [Example 149, 2-chloro-N-(5-((5-chloro-4-((2-(dimethylphosphoryl)phenyl)amino)pyrimidin-2-yl)amino)-2-fluoro-4-methoxyphenyl)acetamide]
IC50 [1]: < 50 nM | IC50 (EGFR L858R/T790M): < 50 nM | GI50 [2]: < 50 nM | GI50 [3]: < 50 nM | IC50 [4]: ≥ 250 nM | IC50 (EGFR L858R): < 50 nM

COc1ccc(NS(=O)(=O)CCl)cc1Nc1ncc(Cl)c(Nc2ccccc2P(C)(C)=O)n1 [Example 150, 1-chloro-N-(3-((5-chloro-4-((2-(dimethylphosphoryl)phenyl)amino)pyrimidin-2-yl)amino)-4-methoxyphenyl)methanesulfonamide]
IC50 [1]: ≥ 250 nM | IC50 (EGFR L858R/T790M): ≥ 250 nM | GI50 [2]: ≥ 250 nM | GI50 [3]: ≥ 250 nM | IC50 [4]: ≥ 250 nM | IC50 (EGFR L858R): ≥ 250 nM

C=CC(=O)Nc1cc(Nc2ncc(Cl)c(Nc3ccccc3P(C)(C)=O)n2)c(C)cc1C#CCN(C)C [Example 151, N-(5-((5-chloro-4-((2-(dimethylphosphoryl)phenyl)amino)pyrimidin-2-yl)amino)-2-(3-(dimethylamino)prop-1-yn-1-yl)-4-methylphenyl)acrylamide]
IC50 [1]: < 50 nM | IC50 (EGFR L858R/T790M): < 50 nM | GI50 [2]: < 50 nM | GI50 [3]: < 50 nM | IC50 [4]: ≥ 250 nM | IC50 (EGFR L858R): < 50 nM

C=CC(=O)Nc1cc(Nc2ncc(Cl)c(Nc3ccccc3P(C)(C)=O)n2)c(CC)cc1C#CCN(C)C [Example 152, N-(5-((5-chloro-4-((2-(dimethylphosphoryl)phenyl)amino)pyrimidin-2-yl)amino)-2-(3-(dimethylamino)prop-1-yn-1-yl)-4-ethylphenyl)acrylamide]
IC50 [1]: < 50 nM | IC50 (EGFR L858R/T790M): < 50 nM | GI50 [2]: < 50 nM | GI50 [3]: < 50 nM | IC50 [4]: ≥ 250 nM | IC50 (EGFR L858R): < 50 nM

C=CC(=O)Nc1cc(Nc2ncc(Cl)c(Nc3ccccc3S(=O)(=O)C(C)C)n2)c(OC)cc1C#CCN(C)C [Example 153, N-(5-((5-chloro-4-((2-(isopropylsulfonyl)phenyl)amino)pyrimidin-2-yl)amino)-2-(3-(dimethylamino)prop-1-yn-1-yl)-4-methoxyphenyl)acrylamide]
IC50 [1]: < 50 nM | IC50 (EGFR L858R/T790M): < 50 nM | GI50 [2]: < 50 nM | GI50 [3]: < 50 nM | IC50 [4]: ≥ 250 nM | IC50 (EGFR L858R): < 50 nM

C=CC(=O)Nc1cc(Nc2ncc(Cl)c(Nc3ccccc3P(C)(C)=O)n2)c(OC)cc1C#CC(C)(C)N(CC)CC [Example 154, N-(5-((5-chloro-4-((2-(dimethylphosphoryl)phenyl)amino)pyrimidin-2-yl)amino)-2-(3-(diethylamino)-3-methylbut-1-yn-1-yl)-4-methoxyphenyl)acrylamide]
IC50 [1]: < 50 nM | IC50 (EGFR L858R/T790M): < 50 nM | GI50 [2]: < 50 nM | GI50 [3]: < 50 nM | IC50 [4]: ≥ 250 nM | IC50 (EGFR L858R): < 50 nM

C=CC(=O)Nc1cc(Nc2ncc(Cl)c(Nc3ccccc3P(C)(C)=O)n2)c(OC)cc1C#CC(C)(C)N(C)C [Example 155, N-(5-((5-chloro-4-((2-(dimethylphosphoryl)phenyl)amino)pyrimidin-2-yl)amino)-2-(3-(dimethylamino)-3-methylbut-1-yn-1-yl)-4-methoxyphenyl)acrylamide]
IC50 [1]: < 50 nM | IC50 (EGFR L858R/T790M): < 50 nM | GI50 [2]: < 50 nM | GI50 [3]: < 50 nM | IC50 [4]: ≥ 250 nM | IC50 (EGFR L858R): < 50 nM

C=CC(=O)Nc1cc(Nc2ncc(Cl)c(Nc3ccccc3P(C)(C)=O)n2)c(Cl)cc1C#CCN(C)C [Example 156, N-(4-chloro-5-((5-chloro-4-((2-(dimethylphosphoryl)phenyl)amino)pyrimidin-2-yl)amino)-2-(3-(dimethylamino)prop-1-yn-1-yl)phenyl)acrylamide]
IC50 [1]: < 50 nM | IC50 (EGFR L858R/T790M): < 50 nM | GI50 [2]: < 50 nM | GI50 [3]: < 50 nM | IC50 [4]: ≥ 250 nM | IC50 (EGFR L858R): < 50 nM
